In paper PMC7576608, “Mechanisms of telomerase inhibition by oxidized and therapeutic dNTPs” (Nature Communications, 2020):
“And” between values parts separate entries of the source, which are not always exact repeats. Equal entries are not always repeated. Where two headings read alike, the source gives them in different places.

Target: telomerase (Homo sapiens, UniProt O14746)
Assay: Telomerase repeat processivity IC50: modified dNTP titrated into reactions with all four natural dNTPs
Format: biochemical
Design: made in house; anti-FLAG immunopurification, eluted with 3xFLAG peptide
Settings: for Best-fit values HillSlope / Best-fit values Span / Best-fit values LogIC50: dose-response fit of processivity R 1/2; for Best-fit values LogIC50: log of concentration in μM; for Best-fit values Bottom / Best-fit values Top: dose-response fit of processivity R 1/2 vs log(concentration)
Text: In order to better understand the ability of modified dNTPs to compete with natural dNTPs for telomerase utilization, we added modified dNTPs to reactions containing all four natural dNTPs. […] The calculated IC50 determines the concentration required to reduce repeat processivity in the bulk reactions by half. However, it is important to note that bulk experiments cannot distinguish effects on individual telomeres, since extended telomeres mask unextended telomeres. Incorporation of a chain terminator during any step will terminate extension of the affected telomere, and just five critically short telomeres are sufficient to trigger senescence. Therefore, repeat processivity IC50 values are not necessarily an indicator of the inhibitory potency, but provide information on selectivity for modified dNTPs compared to natural dNTPs. […] The ability to purify sufficient quantities of tcTERT enables characterization of the catalytic nucleotide addition by pre-steady-state single turnover kinetics using a defined DNA–RNA primer–template substrate. The catalytic efficiency of incorporating a single dNTP is measured by dividing the observed nucleotide incorporation rate constant, kpol, by the equilibrium dissociation constant for dNTP binding to the tcTERT–primer–template complex (Kd)[44].
The reactions were started by the addition of 3 μl of immunopurified telomerase eluent, incubated at 37 °C for 1 h, then terminated with 2 μl of […] and heat inactivated at 65 °C for 20 min. An equal volume of loading buffer (94% formamide, 0.1× TBE, 0.1% bromophenol blue, 0.1% xylene cyanol) was added to the reaction eluent. The samples were heat denatured for 10 min at 100 °C and loaded onto a 14% denaturing acrylamide gel (7 M urea, 1× TBE) and electrophoresed for 90 min at constant 38 W. Samples were imaged using a Typhoon phosphorimager (GE Healthcare). Percent primer extension was calculated with ImageQuant TL 8.2 by measuring the intensity of each product band and dividing by the total radioactivity in the lane or total products, as indicated in the figure legends.
The processivity was calculated as described[40],[67]. Repeat processivity from the direct telomerase extension assays was calculated as R1/2 (equivalent to the half-time for decay in an exponential time course), which represents the median length of DNA product formed, expressed in terms of number of telomere repeats. First, the total volume counts for each product band extend by one or more telomere repeats were obtained using Image Quant TL. The volume counts were then normalized by dividing by the number of radiolabeled guanosines incorporated into the extended products based on the number of repeats added, termed corrected volume (corr vol). The “percent left behind” (%LB) was calculated for each product band by summing the counts for that product band and for every product band below (shorter products), divided by the total counts for the lane, and then multiplied by 100. The natural log of (100−%LB) was calculated and then plotted vs. repeat number for each product length. A linear regression line was fit to the data to determine the slope of the line. The R1/2 value was calculated by dividing −ln(2) by the slope of each fitted line (R1/2 = −ln(2)/slope).
Supplementary Fig 8. IC50 values for telomerase processivity inhibition. Telomerase reactions were conducted with cellular relevant concentrations of all four natural dNTPs and increasing concentrations of the modified dNTP analog from 0 to 10,000 μM to calculate. (a) The natural log of (100-%LB) was plotted vs repeat number. A straight line was fit to the data and the R1/2 value was calculated by dividing –ln(2) by the slope of each line. Plots shown from one experiment are […]

[1] = cellular relevant natural dNTPs, modified dNTP titrated 0 to 10,000 μM, based on repeat processivity, mean ± SD, read-out: Telomerase processivity IC50
[2] = log of processivity IC50 (concentration in μM), Supplementary Fig 8b, read-out: Log IC50 (converted)
[3] = modified dNTP concentration 31.25 μM, individual replicates n1-n3
[4] = modified dNTP concentration 500 μM, individual replicates
[5] = modified dNTP concentration 1000 μM, individual replicates
[6] = modified dNTP concentration 2000 μM, individual replicates
[7] = repeat processivity R 1/2, individual replicates N1-N3, read-out: Best-fit values IC50
[8] = repeat processivity R 1/2, mean of replicates, read-out: Mean IC50
[9] = 6-thio-dGTP, per replicate N1-N3

telomerase, sequence (O14746 whole entry): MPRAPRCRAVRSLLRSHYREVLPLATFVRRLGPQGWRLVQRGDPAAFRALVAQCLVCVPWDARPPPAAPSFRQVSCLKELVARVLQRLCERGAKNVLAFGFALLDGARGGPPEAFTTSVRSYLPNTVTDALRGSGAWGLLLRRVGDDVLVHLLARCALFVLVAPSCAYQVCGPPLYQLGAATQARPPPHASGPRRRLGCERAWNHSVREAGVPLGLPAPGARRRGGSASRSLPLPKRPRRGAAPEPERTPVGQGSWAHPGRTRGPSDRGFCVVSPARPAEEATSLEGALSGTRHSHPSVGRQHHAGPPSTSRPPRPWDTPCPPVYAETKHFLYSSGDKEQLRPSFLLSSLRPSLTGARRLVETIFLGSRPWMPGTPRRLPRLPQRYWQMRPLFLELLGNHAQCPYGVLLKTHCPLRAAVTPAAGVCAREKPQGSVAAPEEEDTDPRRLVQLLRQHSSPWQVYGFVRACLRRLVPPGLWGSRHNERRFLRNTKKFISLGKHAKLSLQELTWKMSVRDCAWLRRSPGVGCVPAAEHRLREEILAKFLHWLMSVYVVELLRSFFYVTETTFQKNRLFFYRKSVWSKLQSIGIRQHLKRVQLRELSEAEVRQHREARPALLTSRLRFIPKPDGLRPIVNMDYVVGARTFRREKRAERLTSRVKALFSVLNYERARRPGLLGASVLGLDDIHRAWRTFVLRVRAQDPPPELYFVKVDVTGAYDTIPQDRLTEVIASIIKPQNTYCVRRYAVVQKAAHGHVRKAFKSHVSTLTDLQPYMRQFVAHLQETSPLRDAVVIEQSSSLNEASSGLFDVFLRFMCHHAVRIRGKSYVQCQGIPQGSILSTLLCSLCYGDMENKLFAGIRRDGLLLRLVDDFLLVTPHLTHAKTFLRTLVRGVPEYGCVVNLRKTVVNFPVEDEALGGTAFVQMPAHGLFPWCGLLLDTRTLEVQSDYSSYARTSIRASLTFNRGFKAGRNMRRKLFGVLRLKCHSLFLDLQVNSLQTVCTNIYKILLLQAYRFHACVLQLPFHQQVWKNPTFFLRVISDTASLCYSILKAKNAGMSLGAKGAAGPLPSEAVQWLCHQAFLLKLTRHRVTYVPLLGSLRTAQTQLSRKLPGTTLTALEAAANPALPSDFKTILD

## O=c1[nH]cnc2c1ncn2C1CCC(COP(=O)(O)OP(=O)(O)OP(=O)(O)O)O1 (stereo not drawn) [ddITP]
[1]
  IC50: 61 ± 23 µM
ddITP 31μM
  YIntercept (line fit of ln(100-%LB) vs # telomere repeats): 3.68 and 3.90 and 3.32
ddITP 31μM, telomere repeat 1
  ln(100-%LB): 3.63 and 3.77 and 3.47
ddITP 31μM, telomere repeat 2
  ln(100-%LB): 2.96 and 3.17 and 2.59
ddITP 31μM, telomere repeat 3
  ln(100-%LB): 2.31 and 2.52 and 1.69
ddITP 31μM, telomere repeat 4
  ln(100-%LB): 1.98 and 2.18 and 1.18
ddITP 62μM
  YIntercept (line fit of ln(100-%LB) vs # telomere repeats): 4.03 and 4.15
ddITP 62μM, telomere repeat 1
  ln(100-%LB): 3.64 and 3.75
ddITP 62μM, telomere repeat 2
  ln(100-%LB): 2.81 and 2.79
ddITP 62μM, telomere repeat 3
  ln(100-%LB): 1.96 and 1.84
ddITP 62μM, telomere repeat 4
  ln(100-%LB): 1.44 and 1.17
ddITP 62μM, telomere repeat 5
  ln(100-%LB): 0.94 and 0.56
ddITP 250μM
  YIntercept (line fit of ln(100-%LB) vs # telomere repeats): 4.62 and 3.98
ddITP 250μM, telomere repeat 1
  ln(100-%LB): 3.84 and 3.61
ddITP 250μM, telomere repeat 2
  ln(100-%LB): 2.72 and 2.32
ddITP 250μM, telomere repeat 3
  ln(100-%LB): 1.42 and 1.15
ddITP 250μM, telomere repeat 4
  ln(100-%LB): 0.59 and 0.39
ddITP 500μM
  Slope (line fit of ln(100-%LB) vs # telomere repeats): -0.95
  YIntercept (line fit of ln(100-%LB) vs # telomere repeats): 4.49
ddITP 500μM, telomere repeat 1
  ln(100-%LB): 3.63 and 3.72
ddITP 500μM, telomere repeat 2
  ln(100-%LB): 2.49 and 2.52
ddITP 500μM, telomere repeat 3
  ln(100-%LB): 1.54 and 1.27
ddITP 500μM, telomere repeat 4
  ln(100-%LB): 0.70 and 0.51
ddITP 750μM
  YIntercept (line fit of ln(100-%LB) vs # telomere repeats): 4.67 and 4.49
ddITP 750μM, telomere repeat 1
  ln(100-%LB): 3.72 and 3.79
ddITP 750μM, telomere repeat 2
  ln(100-%LB): 2.57 and 2.74
ddITP 750μM, telomere repeat 3
  ln(100-%LB): 1.55 and 1.58
ddITP 750μM, telomere repeat 4
  ln(100-%LB): 0.67 and 0.79
ddITP 1000μM
  YIntercept (line fit of ln(100-%LB) vs # telomere repeats): 4.63 and 4.20
ddITP 1000μM, telomere repeat 1
  ln(100-%LB): 3.82 and 3.80
ddITP 1000μM, telomere repeat 2
  ln(100-%LB): 3.01 and 3.04
ddITP 1000μM, telomere repeat 3
  ln(100-%LB): 2.22 and 2.25
ddITP 1000μM, telomere repeat 4
  ln(100-%LB): 1.56 and 1.76
ddITP 1000μM, telomere repeat 5
  ln(100-%LB): 0.86 and 1.29
ddITP 1500
  Slope (line fit of ln(100-%LB) vs # telomere repeats): -0.86
  YIntercept (line fit of ln(100-%LB) vs # telomere repeats): 4.62 and 4.48
ddITP 1500, telomere repeat 1
  ln(100-%LB): 3.74 and 3.65
ddITP 1500, telomere repeat 2
  ln(100-%LB): 2.90 and 2.79
ddITP 1500, telomere repeat 3
  ln(100-%LB): 2.03 and 1.76
ddITP 1500, telomere repeat 4
  ln(100-%LB): 1.25 and 1.21
ddITP 1500, telomere repeat 5
  ln(100-%LB): 0.25 and 0.17
Individual replicates
  Best-fit values HillSlope: -1.214 and -1.087 and -1.6
  Best-fit values Span: 1.373 and 2.642 and 1.489
  Best-fit values LogIC50: 1.601 and 1.931 and 1.751
  Best-fit values Bottom: 0.6806 and 0.1353 and 0.7679
  Best-fit values Top: 2.054 and 2.778 and 2.257
[2]
  IC50: 63.1 µM
[3]
  Processivity R 1/2: 1.52 and 2.08 and 1.82
Modified dNTP concentration 62.5 μM, individual replicates
  Processivity R 1/2: 1.13 and 1.82
Modified dNTP concentration 250 μM, individual replicates
  Processivity R 1/2: 0.87 and 0.71
[4]
  Processivity R 1/2: 0.8 and 0.73 (2×)
Modified dNTP concentration 750 μM, individual replicates
  Processivity R 1/2: 0.8 and 0.49
[5]
  Processivity R 1/2: 0.69 (2×) and 0.47
Modified dNTP concentration 1500 μM, individual replicates
  Processivity R 1/2: 0.81 and 0.26 and 0.88
[6]
  Processivity R 1/2: 0.45 and 0 and 0.81
[7]
  IC50: 39.9 µM and 85.3 µM and 56.4 µM
[8]
  IC50: 60.5 µM

## Cc1cn([C@H]2C[C@H](N=[N+]=[N-])[C@@H](CO[P@](=O)(O)O[P@](=O)(O)OP(=O)(O)O)O2)c(=O)[nH]c1=O [AZT-TP]
[1]
  IC50: 402 ± 169 µM
Individual replicates
  Best-fit values HillSlope: -0.83 and -0.51
  Best-fit values Span: 2.37 and 4.19
  Best-fit values LogIC50: 2.72 and 2.45
  Best-fit values Bottom: -0.33 and -0.59
  Best-fit values Top: 2.04 and 3.59
[2]
  IC50: 501 µM
[3]
  Processivity R 1/2: 1.70 and 1.35
[4]
  Processivity R 1/2: 0.80 and 0.64
[5]
  Processivity R 1/2: 0.57 and 0.61
[6]
  Processivity R 1/2: 0.00 and 0.49
Modified dNTP concentration 4000 μM, individual replicates
  Processivity R 1/2: 0.00
[7]
  IC50: 521 µM and 282 µM
[8]
  IC50: 402 µM

## Nc1nc2c(ncn2C2CC(O)C(COP(=O)(O)OP(=O)(O)OP(=O)(O)O)O2)c(=S)[nH]1 (stereo not drawn) [6-thio-dGTP]
6-thio-dGTP 0.625μM
  Processivity R 1/2: 4.12 and 2.32 and 3.78
  YIntercept (line fit of ln(100-%LB) vs # telomere repeats): 2.91 and 3.25 and 3.64
6-thio-dGTP 0.625μM, telomere repeat 1
  ln(100-%LB): 3.70 and 3.69 and 3.62
6-thio-dGTP 0.625μM, telomere repeat 2
  ln(100-%LB): 3.11 and 3.16 and 3.05
6-thio-dGTP 0.625μM, telomere repeat 3
  ln(100-%LB): 2.56 and 2.68 and 2.52
6-thio-dGTP 0.625μM, telomere repeat 4
  ln(100-%LB): 2.29 and 2.48 and 2.27
6-thio-dGTP 0.625μM, telomere repeat 5
  ln(100-%LB): 2.03 and 2.29 and 2.05
6-thio-dGTP 0.625μM, telomere repeat 6
  ln(100-%LB): 1.75 and 2.06 and 1.79
6-thio-dGTP 0.625μM, telomere repeat 7
  ln(100-%LB): 1.47 and 1.85 and 1.49
6-thio-dGTP 0.625μM, telomere repeat 8
  ln(100-%LB): 1.23 and 1.67 and 1.26
6-thio-dGTP 0.625μM, telomere repeat 9
  ln(100-%LB): 0.98 and 1.45 and 0.96
6-thio-dGTP 0.625μM, telomere repeat 10
  ln(100-%LB): 0.71 and 1.24 and 0.68
6-thio-dGTP 10μM
  YIntercept (line fit of ln(100-%LB) vs # telomere repeats): 5.12 and 3.95 and 4.44
6-thio-dGTP 10μM, telomere repeat 1
  ln(100-%LB): 3.39 and 3.57 and 3.48
6-thio-dGTP 10μM, telomere repeat 2
  ln(100-%LB): 1.78 and 2.70 and 1.99
6-thio-dGTP 10μM, telomere repeat 6
  ln(100-%LB): 0.15
6-thio-dGTP 10μM, telomere repeat 7
  ln(100-%LB): -0.27
6-thio-dGTP 10μM, telomere repeat 8
  ln(100-%LB): -0.68
6-thio-dGTP 10μM, telomere repeat 9
  ln(100-%LB): -1.63
6-thio-dGTP, mean of N1-N3, SD 1.45, read-out: Mean IC50 (processivity R 1/2)
  IC50: 5.48 µM
[9]
  Bottom (best-fit, processivity R 1/2 vs log concentration): 0.3229 and 0.05037 and -0.0895
  HillSlope (processivity): -2.993 and -0.7699 and -0.9281
  Span (best-fit, processivity R 1/2 vs log concentration): 3.504 and 3.529 and 1.482
  Top (best-fit, processivity R 1/2 vs log concentration): 3.827 and 3.579 and 1.393
6-thio-dGTP, per replicate N1-N3, concentration in μM
  LogIC50 (processivity): 0.8984 and 0.6519 and 0.682
6-thio-dGTP, per replicate N1-N3, read-out: IC50 (processivity R 1/2)
  IC50: 4.49 µM and 4.81 µM
[1]
  IC50: 5 ± 2 µM
[2]
  IC50: 5.01 µM
